Measured values published in US20250268826A1, “IONIZABLE LIPIDOID COMPOSITIONS AND THERAPEUTIC USES THEREOF” (Flagship Pioneering Innovations VII, LLC, priority 2023, published 2025).
“And” between values parts separate entries of the source, which are not always exact repeats. Equal values may be shown once. Read-outs that look alike come from different tables or passages of the source.

Tests used:
Type in all cases: physicochemical
[1] = LNP size and polydispersity index (PDI) by dynamic light scattering (DLS)
[2] = LNP Zeta potential measured using a Zetasizer (Malvern); settings: for Zeta potential (mV): LNP with hEPO mRNA, N:P ratio 6
[3] = Encapsulation efficiency (EE %) by fluorescence based Ribogreen assay
[4] = Table 9, LNP 50:10:38.5:1.5 mol %, hEPO mRNA, N:P 6
[5] = Table 9, LNP Lipid:DSPC:Cholesterol:DMG-PEG2k 50:10:38.5:1.5 mol %, hEPO mRNA, N:P 6
[6] = Table 10, LNP with hEPO mRNA, Lipid:DSPC:Cholesterol:DMG-PEG2k 50:10:38.5:1.5 mol %, N:P ratio 6, DLS
[7] = Table 11, LNP with hEPO mRNA, Lipid:DSPC:Cholesterol:DMG-PEG2k 50:10:38.5:1.5 mol % (ALC-0315: 46.3:9.4:42.7:1.6), N:P ratio 6, HEPES/sodium chloride/sucrose buffer, stored at −80C
[8] = Table 1, LNP lipid:DSPC:Cholesterol:DMG-PEG2k 50:10:38.5:1.5 mol %, hEPO mRNA, N:P 6
[9] = Table 3, LNP 50:10:38.5:1.5 mol %, hEPO mRNA, N:P 6
[10] = Table 3, LNP lipid:DSPC:Cholesterol:DMG-PEG2k 50:10:38.5:1.5 mol %, hEPO mRNA, N:P 6
[11] = Table 5, LNP 50:10:38.5:1.5 mol %, hEPO mRNA, N:P 6
[12] = Table 5, LNP 60:0:38.5:1.5 mol %, hEPO mRNA, N:P 6
[13] = Table 2, LNP 20:10:68.5:1.5 mol %, EGFP mRNA, N:P 2.4
[14] = Table 2, LNP 20:40:38.5:1.5 mol %, EGFP mRNA, N:P 2.4
[15] = Table 2, LNP 30:10:58.5:1.5 mol %, EGFP mRNA, N:P 3.6
[16] = Table 2, LNP 30:30:38.5:1.5 mol %, EGFP mRNA, N:P 3.6
[17] = Table 2, LNP 40:10:48.5:1.5 mol %, EGFP mRNA, N:P 4.8
[18] = Table 2, LNP 40:20:38.5:1.5 mol %, EGFP mRNA, N:P 4.8
[19] = Table 2, LNP 50:10:38.5:1.5 mol %, EGFP mRNA, N:P 6
[20] = Table 8, LNP 50:10:38.5:1.5 mol %, hEPO mRNA, N:P 6

## CCCCCCCCC(CCCCCC)C(=O)OCCN(CCOC(=O)C(CCCCCC)CCCCCCCC)C(=O)CN(CC)CCC.Cl (single isomer, unassigned) [Compound 960a]
[1]; [4]
  PDI: 0.125
[1]; [5]
  Size: 77.4 nm
[2]; [4]
  Zeta potential: −28.49 mV
[3]; [4]
  Encapsulation Efficiency %: 99.7%

## CCCCCCCCC(CCCCCC)C(=O)OCCN(CCOC(=O)C(CCCCCC)CCCCCCCC)C(=O)CN(CC)CCC.Cl (single isomer, unassigned) [Compound 960b]
[1]; [4]
  PDI: 0.099
[1]; [5]
  Size: 61.4 nm
[2]; [4]
  Zeta potential: −23.35 mV
[3]; [4]
  Encapsulation Efficiency %: 99.8%

## CCCCCCCCC(CCCCCC)C(=O)OCCCCCCN(CCCCO)CCCCCCOC(=O)C(CCCCCC)CCCCCCCC (centres unmarked) [ALC-0315, reference compound]
[1]; [6]
  PDI: 0.295
  Size (nm): 61.4 nm
[1]; [7]
  PDI: 0.280
  Size (nm): 74.7 nm
[2]; Table 10, Lipid:DSPC:Cholesterol:DMG-PEG2k 50:10:38.5:1.5 mol %
  Zeta potential (mV): −10.3 mV
[2]; Table 11, Lipid:DSPC:Cholesterol:DMG-PEG2k 50:10:38.5:1.5 mol % (ALC-0315: 46.3:9.4:42.7:1.6), HEPES/sodium chloride/sucrose buffer, stored at −80C
  Zeta potential (mV): −7.5 mV
[3]; Table 10, LNP with hEPO mRNA, Lipid:DSPC:Cholesterol:DMG-PEG2k 50:10:38.5:1.5 mol %, N:P ratio 6, Ribogreen assay
  Encapsulation Efficiency %: 83.8%
[3]; [7]
  Encapsulation Efficiency %: 91.0%

## CCCCCCCC/C=C\CCCCCCCC(=O)OCCN(CCOC(=O)CCCCCCC/C=C\CCCCCCCC)C(=O)CN [Compound 101]
[1]; [8]
  PDI: 0.088
  Size: 62.6 nm
[2]; [8]
  Zeta potential: 4.394 mV
[3]; [8]
  Encapsulation Efficiency %: 97.9%

## CCCCCCCCCCCC(=O)OCCN(CCOC(=O)CCCCCCCCCCC)C(=O)CN [Compound 103]
[1]; [8]
  PDI: 0.092
  Size: 77.3 nm
[2]; [8]
  Zeta potential: 9.778 mV
[3]; [8]
  Encapsulation Efficiency %: 97.5%

## CCCCCCCCCC(=O)OCCN(CCOC(=O)CCCCCCCCC)C(=O)CN [Compound 104]
[1]; [8]
  PDI: 0.441
  Size: 74.7 nm
[2]; [8]
  Zeta potential: −2.361 mV
[3]; [8]
  Encapsulation Efficiency %: 94.4%

## CCCCCCCCC(CCCCCC)C(=O)OCCN(CCOC(=O)C(CCCCCC)CCCCCCCC)C(=O)CN (centres unmarked) [Compound 105]
[1]; [8]
  PDI: 0.217
  Size: 72.6 nm
[1]; [9]
  PDI: 0.256
[1]; [10]
  Size: 162.2 nm
[1]; [11]
  PDI: 0.104
[1]; [12]
  PDI: 0.198
  Size: 146.3 nm
[1]; Table 5, LNP Lipid:DSPC:Cholesterol:DMG-PEG2k 50:10:38.5:1.5 mol %, hEPO mRNA, N:P 6
  Size: 166.9 nm
[2]; [8]
  Zeta potential: −4.852 mV
[2]; [11]
  Zeta potential: −5.091 mV
[2]; [12]
  Zeta potential: −8.315 mV
[3]; [8]
  Encapsulation Efficiency %: 91.3%
[3]; [9]
  Encapsulation Efficiency %: 99.9%
[3]; [11]
  Encapsulation Efficiency %: 99.6%
[3]; [12]
  Encapsulation Efficiency %: 99.3%

## CCCCCCCC/C=C\CCCCCCCC(=O)OCCN(CCOC(=O)CCCCCCC/C=C\CCCCCCCC)C(=O)C(C)N (centres unmarked) [Compound 107]
[1]; [8]
  Size: 100.4 nm
[1]; [9]
  PDI: 0.016
[1]; [10]
  Size: 60.6 nm
[2]; [8]
  Zeta potential: 5.484 mV
[3]; [8]
  Encapsulation Efficiency %: 93%
[3]; [9]
  Encapsulation Efficiency %: 99.9%

## CCCCCCCCCCCC(=O)OCCN(CCOC(=O)CCCCCCCCCCC)C(=O)C(C)N (centres unmarked) [Compound 109]
[1]; [8]
  PDI: 0.557
  Size: 90.7 nm
[2]; [8]
  Zeta potential: 8.911 mV
[3]; [8]
  Encapsulation Efficiency %: 97.6%

## CCCCCCCCCC(=O)OCCN(CCOC(=O)CCCCCCCCC)C(=O)C(C)N (centres unmarked) [Compound 110]
[1]; [8]
  PDI: 0.069
  Size: 57.7 nm
[2]; [8]
  Zeta potential: −4.943 mV
[3]; [8]
  Encapsulation Efficiency %: 98%

## CCCCCCCCC(CCCCCC)C(=O)OCCN(CCOC(=O)C(CCCCCC)CCCCCCCC)C(=O)C(C)N (centres unmarked) [Compound 111]
[1]; [8]
  PDI: 0.223
  Size: 93.4 nm
[1]; [13]
  PDI: 0.129
[1]; [14]
  PDI: 0.095
[1]; [15]
  PDI: 0.082
[1]; [16]
  PDI: 0.117
[1]; [17]
  PDI: 0.038
[1]; [18]
  PDI: 0.136
[1]; [19]
  PDI: 0.235 and 0.253
[1]; Table 2, LNP lipid:DSPC:Cholesterol:DMG-PEG2k 20:10:68.5:1.5 mol %, EGFP mRNA, N:P 2.4
  Size: 57.5 nm
[1]; Table 2, LNP lipid:DSPC:Cholesterol:DMG-PEG2k 20:40:38.5:1.5 mol %, EGFP mRNA, N:P 2.4
  Size: 69.2 nm
[1]; Table 2, LNP lipid:DSPC:Cholesterol:DMG-PEG2k 30:10:58.5:1.5 mol %, EGFP mRNA, N:P 3.6
  Size: 46.5 nm
[1]; Table 2, LNP lipid:DSPC:Cholesterol:DMG-PEG2k 30:30:38.5:1.5 mol %, EGFP mRNA, N:P 3.6
  Size: 57 nm
[1]; Table 2, LNP lipid:DSPC:Cholesterol:DMG-PEG2k 40:10:48.5:1.5 mol %, EGFP mRNA, N:P 4.8
  Size: 44.1 nm
[1]; Table 2, LNP lipid:DSPC:Cholesterol:DMG-PEG2k 40:20:38.5:1.5 mol %, EGFP mRNA, N:P 4.8
  Size: 48.2 nm
[1]; Table 2, LNP lipid:DSPC:Cholesterol:DMG-PEG2k 50:10:38.5:1.5 mol %, EGFP mRNA, N:P 6
  Size: 110.9 nm and 106 nm
[1]; [9]
  PDI: 0.27
[1]; [10]
  Size: 100.9 nm
[2]; [8]
  Zeta potential: −3.357 mV
[2]; [13]
  Zeta potential: −6.2 mV
[2]; [14]
  Zeta potential: −8.876 mV
[2]; [15]
  Zeta potential: −4.4 mV
[2]; [16]
  Zeta potential: −9.169 mV
[2]; [17]
  Zeta potential: −6.9 mV
[2]; [18]
  Zeta potential: −8.503 mV
[3]; [8]
  Encapsulation Efficiency %: 95.9%
[3]; [13]
  Encapsulation Efficiency %: 99.7%
[3]; [14]
  Encapsulation Efficiency %: 99.3%
[3]; [15]
  Encapsulation Efficiency %: 99.8%
[3]; [16]
  Encapsulation Efficiency %: 99.2%
[3]; [17]
  Encapsulation Efficiency %: 99.7%
[3]; [18]
  Encapsulation Efficiency %: 99.6%
[3]; [19]
  Encapsulation Efficiency %: 99.4% and 99.8%
[3]; [9]
  Encapsulation Efficiency %: 98.1%

## CCCCCCCC/C=C\CCCCCCCC(=O)OCCN(CCOC(=O)CCCCCCC/C=C\CCCCCCCC)C(=O)C(N)Cc1ccccc1 (centres unmarked) [Compound 113]
[1]; [8]
  PDI: 0.126
  Size: 79.1 nm
[1]; [9]
  PDI: 0.068
[1]; [10]
  Size: 61.4 nm
[2]; [8]
  Zeta potential: −2.878 mV
[3]; [8]
  Encapsulation Efficiency %: 95.2%
[3]; [9]
  Encapsulation Efficiency %: 99.7%

## CCCCCCCC/C=C\CCCCCCCC(=O)OCCN(CCOC(=O)CCCCCCC/C=C\CCCCCCCC)C(=O)C(N)Cc1c[nH]cn1 (centres unmarked) [Compound 125]
[1]; [8]
  PDI: 0.46
  Size: 109.4 nm
[3]; [8]
  Encapsulation Efficiency %: 99.4%

## CCCCCCCCC(CCCCCC)C(=O)OCCN(CCOC(=O)C(CCCCCC)CCCCCCCC)C(=O)C(N)Cc1c[nH]cn1 (centres unmarked) [Compound 129]
[1]; [8]
  Size: 93.8 nm
[3]; [8]
  Encapsulation Efficiency %: 99.7%

## CCCCCCCC/C=C\CCCCCCCC(=O)OCCN(CCOC(=O)CCCCCCC/C=C\CCCCCCCC)C(=O)[C@H](C)N.Cl [Compound 201]
[1]; [9]
  PDI: 0.032
[1]; [10]
  Size: 63.1 nm
[3]; [9]
  Encapsulation Efficiency %: 99.9%

## CCCCCCCC/C=C\CCCCCCCC(=O)OCCN(CCOC(=O)CCCCCCC/C=C\CCCCCCCC)C(=O)[C@@H](N)Cc1ccccc1.Cl [Compound 202]
[1]; [9]
  PDI: 0.033
[1]; [10]
  Size: 60.7 nm
[3]; [9]
  Encapsulation Efficiency %: 99.7%

## CCCCCCCCC(CCCCCC)C(=O)OCCN(CCOC(=O)C(CCCCCC)CCCCCCCC)C(=O)CC(C)NCCC.Cl (centres unmarked) [Compound 948]
[1]; [20]
  PDI: 0.188
[1]; Table 8, LNP Lipid:DSPC:Cholesterol:DMG-PEG2k 50:10:38.5:1.5 mol %, hEPO mRNA, N:P 6
  Size: 74.1 nm
[3]; [20]
  Encapsulation Efficiency %: 99.7%

## CCCCCCCCC(CCCCCC)C(=O)OCCN(CCOC(=O)C(CCCCCC)CCCCCCCC)C(=O)CN(C)C (centres unmarked) [Compound 961]
[3]
  Encapsulation Efficiency %: 99.8%
